According to patent publication US12269811B2, “Synthesis of omecamtiv mecarbil” (Amgen Inc., priority 2017, dated 2025):
Values after ≈ are worked out from the molar mass of the structure shown.

Experiments:
Type in all cases: physicochemical
[1] = Piperazine levels upon storage
[2] = Dynamic vapor sorption (DVS) isothermal plot of PMEC salt forms; conditions: FIG. 1; for DVS weight increase onset: relative humidity at onset of weight increase
Procedure: The DVS weight increase onset for each salt was measured as noted—35% relative humidity (RH) for the hemi-sulfate; 50% RH for the acetate; and 65% RH for the phosphate hydrate. The phosphate hydrate is termed phosphate or hemi-phosphate and the hemi-sulfate is termed sulfate or hemi-sulfate in the figure.

[3] = Solubility in isopropanol

Which “piperazine levels upon storage” value ([1]; storage at 25° C.) does the source give for `COC(=O)N1CCNCC1` [PMEC freebase, methyl piperazine-1-carboxylate] here?
The value was “up to 18 LC area %”.

For `COC(=O)N1CCNCC1` [PMEC phosphate hydrate, methyl piperazine-1-carboxylate], which hygroscopicity ([2]; compared with the sulfate and acetate salts) is on record?
Its hygroscopicity is “less hygroscopic than the corresponding sulfate and acetate salt”.

What about the “DVS weight increase onset” value [2] of the same compound?
Its value is 65 % RH.

And the “piperazine levels upon storage” value ([1]; upon storage, level <0.4 GC area %)?
The value was “do not increase upon storage”.

With `COC(=O)N1CCNCC1` [acetate, methyl piperazine-1-carboxylate] as the compound, how does the “DVS weight increase onset” value [2] read?
Its value is 50 % RH.

For `COC(=O)N1CCNCC1` [hemi-sulfate, methyl piperazine-1-carboxylate], which “DVS weight increase onset” value [2] is on record?
Its value is 35 % RH.

Which solubility in isopropanol ([3]; 20° C.) does the source give for `COC(=O)N1CCN(Cc2cccc(NC(=O)Nc3ccc(C)nc3)c2F)CC1` [omecamtiv mecarbil] here?
The solubility in isopropanol was “about 10 mg/mL”.

And the solubility ([3]; 20 °C, organic solvent or mixture)?
Its solubility is about 12 mg/mL (≈ 29.9 mM).
